Test results: patent US10422007B2, “Markers associated with Wnt inhibitors” (Novartis AG, priority 2013, dated 2019)

What was measured:
HN30 tumors [1] = experiment: Pharmacodynamic markers in HN30 mouse xenograft tumors; type: in vivo
Protocol: AXIN2 mRNA and pLRP6 levels (determined as in Example 3) were utilized as pharmacodynamic markers to link the observed anti-tumor activity in the HN30 mouse xenograft model. […] A time delay was observed between the peak drug concentration (at 1 hour) and the maximum AXIN2 mRNA inhibition (at 10 hours). […] This pharmacokinetic (PK), PD, and efficacy relationship explains that the sustained pathway inhibition is not required for inducing tumor regression in this HN30 xenograft model, which may provide a key differentiation factor between tumors and normal tissues to achieve a therapeutic window.
For this a two-Step TaqMan RT-PCR analysis was performed on a PTC-200 peltier thermal cycler (MJ Research) and an ABI PRISM 7900HT Sequence Detection system (Applied Biosystems). Firstly, cDNA was synthesized using a High-Capacity cDNA Archive kit (Applied Biosystems) according to the manufacturer's instructions. Briefly, the RT reaction was prepared by mixing non-enzymatic, enzymatic components of the High-Capacity cDNA Archive kit and isolated RNA samples, followed with tandem incubation at 25° C. for 10 min and 37° C. for 120 min using a thermal cycler. Secondly, TaqMan analyses were performed using TaqMan Universal Master mix (Applied Biosystems) and AXIN2 and GAPDH probes (Applied Biosystems) according to the manufacturer's instructions. Briefly, the PCR reaction was prepared by mixing Universal Master mix, TaqMan probes and synthesized cDNA samples. The PCR cycle is as following: 95° C. for 10 min and 40 cycles of tandem incubation at 95° C. for 15 sec and 60° C. for 1 min. mRNA expression levels for the target genes were normalized to GAPDH mRNA levels and data were analyzed using SDS 2.0 software (Applied Biosystems) to calculate relative RNA quantities. Curve fitting was performed using Prism.
For GeneCard analysis, 96-well TaqMan array gene card was used according to the manufacturer's instruction. The gene card assays were run on ABI 7900HT Real-Time PCR System (Applied Biosystems) and analyzed with the ΔΔCt method.

SNU1076 xenograft = SNU1076 xenograft model in mice; type: in vivo, mouse; conditions: 5 mg/kg
Source text: DTX3L (Deltex 3-like, also called BBAP, B-lymphoma- and BAL-associated protein) heterozygous nonsense mutation was identified in the HNSCC cell line SNU1076. DTX3L is an E3 ubiquitin ligase. Its cellular function in the mammalian Notch pathway is not clear, but its Drosophila homologue Deltex is a positive regulator of Notch signaling in Drosophila. […] Loss of DTX3L may provide an alternative mechanism to inactivate the Notch signaling pathway with subsequent activation of Wnt signaling.

cells = experiment: Cytotoxicity in cells; type: cell-based; conditions: up to 20 μM
Source text: (§1) The secreted Wnts subsequently function on Wnt receiving cells that leads to phosphorylation of the Wnt […] LRP6. […] PORCN was reported to affect pan-Wnt post-translational palmitoylation^17-18.

HN30 cells [2] = experiment: Wnt-dependent AXIN2 message production in HN30 (TaqMan); type: cell-based; conditions: Homo sapiens; HN30, 48 hours
Protocol: (§2) To identify human cancer cell lines that respond to porcupine inhibition, we profiled over 300 cell lines using the mRNA expression level of AXIN2 as readout. All cell lines were cultured in a humidified incubator at 37° C. with 5% CO2. HN30 cells (Wayne State University) and UMSCC cells (University of Michigan) are derived from human head neck squamous cell carcinoma (HNSCC) patient tumor samples. Total RNA or DNA was isolated using the Qiagen RNeasy and DNeasy blood and tissue kit, according to the manufacturer's instruction, respectively. Briefly, cells were disrupted by adding Buffer RLT and homogenized using QlAshredder spin columns. After one volume of 70% ethanol was added to the homogenized lysate and thoroughly mixed, the samples were transferred to RNeasy spin column. The flow-through was discarded after centrifuge. […]
(§3) For this a two-Step TaqMan RT-PCR analysis was performed on a PTC-200 peltier thermal cycler (MJ Research) and an ABI PRISM 7900HT Sequence Detection system (Applied Biosystems). […] The PCR cycle is as following: 95° C. for 10 min and 40 cycles of tandem incubation at 95° C. for 15 sec and 60° C. for 1 min. mRNA expression levels for the target genes were normalized to GAPDH mRNA levels and data were analyzed using SDS 2.0 software (Applied Biosystems) to calculate relative RNA quantities. […]

[3] = system: Wnt1, 2, 3, 3A, 6, 7A, and 9A; experiment: Wnt dependent STF reporter assays with a set of canonical Wnts; type: cell-based
Source text: as §1

HN30 cells [4] = experiment: HN30 colony formation assay; type: cell-based, human; conditions: in vitro, crystal violet one week later
Protocol: In order to correlate the pathway inhibition with cellular function, the human HNSCC cell line HN30 was used for further in vitro and in vivo characterization. For colony formation assay, 2×10^3 cells per well were plated into 6-well cell culture plates with or without compound treatment. Cells were stained with crystal violet one week later.

Wnt signaling = experiment: Wnt co-culture reporter gene assay (TM3 Wnt-Luc cells with L-cell Wnt3A cells); type: cell-based, mouse
Protocol: Reporter gene assay: Mouse Leydig cell TM3 cells (obtained from American Type Culture Collection, ATCC, Manassas, Va.) are cultured in 1:1 mixture of Ham's F12 medium and Dulbecco's modified Eagle's medium (Gibco/Invitrogen, Carlsbad, Calif.) supplemented with 2.5% FBS (Gibco/Invitrogen, Carlsbad, Calif.) and 5% horse serum (Gibco/Invitrogen, Carlsbad, Calif.), 50 unit/mL penicillin and 50 μg/mL of streptomycin (Gibco/Invitrogen, Carlsbad, Calif.) at 37° C. with 5% CO2 in air atmosphere. TM3 cells in a 10 cm dish are co-transfected with 8 μg of STF-reporter plasmid containing a luciferase gene driven by Wnt-responsive elements and 2 μg of pcDNA3.1-Neo (Gibco/Invitrogen, Carlsbad, Calif.) with 30 μL of FuGENE6 (Roche Diagnostics, Indianapolis, Ind.) following the manufacturer's protocol. Stable cell lines (TM3 Wnt-Luc) were selected with 400 μg/mL of G418 (Gibco/Invitrogen, Carlsbad, Calif.). […]

HNSCC cell lines = experiment: Cancer cell line profiling with AXIN2 mRNA expression as readout (TaqMan); type: cell-based, human
Protocol: as §2, §3

HN30 tumors [5] = experiment: Mouse subcutaneous xenograft model of HNSCC HN30, anti-tumor activity; type: in vivo
Protocol: (§4) Nude mice bearing HN30 tumors were randomized according to tumor volume. […] Body weight was monitored daily and tumor sizes were assessed three times a week once tumors were palpable. Tumor sizes were determined by using caliper measurements. Tumor volumes were calculated with a formula (Length×Width×Height)/2. […] Blood sample (50 μL) was collected by serial retroorbital sampling at 1, 3, 7, 16 and 24 hours post-dose. The blood samples were centrifuged and plasma separated and frozen until analysis by LC/MS/MS.
Changes in tumor weight for each treated (T) and control (C) groups were measured and used to calculate growth delay as expressed by the T/C ratio. […] A similar result was obtained when dosed twice a day in this model with −44% T/C at a dose of 0.5 mg/kg twice a day.

Wnt3A secretion = experiment: HA-Wnt3A secretion in transfected 293A cells; type: cell-based; conditions: 293A cells transfected with HA-Wnt3A, various doses; lysate HA-Wnt3A spared
Source text: as §1

LRP6 phosphorylation = experiment: Wnt dependent phosphorylation of LRP6 in autocrine L-Wnt3A cells; type: cell-based, mouse
Source text: as §1

[6] = Plasma concentrations in tumor bearing nude mice; type: in vivo, mouse; conditions: single dose 3 mg/kg
Protocol: as §4

Cc1cc(-c2ncc(CC(=O)Nc3ccc(-c4cnccn4)cn3)cc2C)ccn1 [COMPOUND A, 2-[5-methyl-6-(2-methylpyridin-4-yl)pyridin-3-yl]-N-[5-(pyrazin-2-yl)pyridin-2-yl]acetamide]
time of maximum effect on pLRP6 (HN30 tumors [1]; HN30 tumors): 7-10 hours post dose | downregulation for LEF1 (HN30 tumors [1]; HN30 xenograft): 84% | downregulation for NKD1 (HN30 tumors [1]; HN30 xenograft): 67% | time of maximum AXIN2 mRNA inhibition (HN30 tumors [1]; single dose 3 mg/kg): 10 h | reduction of AXIN2 mRNA expression in tumors (HN30 tumors [1]; single dose 3 mg/kg, between 5 and 10 hours post dose): 60-95% | pLRP6 levels in the HN30 tumors (HN30 tumors [1]; time dependent, largely back to normal by 24 hours): substantially reduced | T/C (SNU1076 xenograft; 14 days of treatment): 25% | reduction of AXIN2 (SNU1076 xenograft; SNU1076 xenograft): 70% | cytotoxicity in cells (cells): no major cytotoxicity | IC50 (HN30 cells [2]): 300 pM | inhibitory activities against canonical Wnts in STF reporter assays [3]: comparable inhibitory activities against all tested Wnts | HN30 colony formation (HN30 cells [4]): strongly attenuated | IC50 (Wnt signaling; Mus musculus, luciferase reporter, 24 hours, read-out: IC50 of Wnt signaling inhibition in Wnt co-culture assay): 400 pM | inhibitory effect after addition of exogenous Wnt3A conditioned medium (Wnt signaling; Wnt co-culture assay): rescued | cell lines harbouring HRAS mutations that responded (HNSCC cell lines; head and neck cancer cell lines): 4 of 5 | HNSCC cell lines showing pathway inhibition (HNSCC cell lines; responsive = greater than 50% AXIN2 mRNA reduction after 10-100 nM for 48 hours): 31 out of 96 | T/C (HN30 tumors [5]; 0.1 mg/kg once a day, oral gavage, 14 days): 69% | T/C (HN30 tumors [5]; 0.3 mg/kg once a day, oral gavage, 14 days): 26% | T/C (HN30 tumors [5]; 0.5 mg/kg twice a day): −44% | T/C (HN30 tumors [5]; 1.0 mg/kg once a day, oral gavage, 14 days): −31% | T/C (HN30 tumors [5]; 3.0 mg/kg once a day, oral gavage, 14 days): −50% | animal body weight loss (HN30 tumors [5]; 0.1-3.0 mg/kg once a day, 14 days): no significant animal body weight loss | abundance of HA-Wnt3A in the supernatant (Wnt3A secretion): potently attenuated | Wnt dependent phosphorylation of LRP6 (LRP6 phosphorylation): strongly blocked | time of peak drug concentration [6]: 1 h
